The source made the active and inactive calls. No cut-off for these calls is given here.
Legend:
MCF7 [1] = assay: Upregulation of PARP protein expression in human MCF7 cells at 4 uM after 24 hrs by Western blot analysis; type: functional, cell-based
MCF7 [2] = assay: Cell cycle arrest in human MCF7 cells assessed as accumulation at G0 phase at 4 uM after 24 hrs by propidium iodide staining based flow cytometry (reference value: 2.77%); type: functional
MCF7 [3] = assay: Cytotoxicity against human MCF7 cells assessed as decrease in cell viability at 4 uM after 24 hrs by MTT assay; type: functional, cell-based
PC-3 [4] = assay: Growth inhibition of human PC3 cells; type: functional
Calf thymus DNA = assay: Binding affinity to calf thymus DNA assessed as change in melting temperature at compound to DNA ratio of 1:5 after 18 hrs by thermal denaturation analysis; type: nucleic-acid assay; settings: Bos taurus
Mus musculus [5] = assay: Toxicity in NOD-SCID mouse xenografted with human PC3 cells assessed as mortality at 20 mg/kg, iv q4d on days 1, 5 and 9; type: organism-based, PC-3; set-up: dose 20 mg/kg, route intravenous; settings: in vivo
MCF7 [6] = assay: Downregulation of CDK4 protein expression in human MCF7 cells at 4 uM after 24 hrs by Western blot analysis; type: functional, cell-based
A549 = assay: Growth inhibition of human A549 cells; type: functional
KB = assay: Growth inhibition of human KB cells; type: functional
[7] = Toxicity in iv dosed NOD-SCID mouse xenografted with human PC3 cells assessed as maximum tolerated dose administered q4d on days 1, 5 and 9; type: organism-based, PC-3; settings: in vivo
MCF7 [8] = assay: Cell cycle arrest in human MCF7 cells assessed as accumulation at G0/G1 phase at 4 uM after 24 hrs by propidium iodide staining based flow cytometry (reference value: 60.75%); type: functional
MCF7 [9] = assay: Cytotoxicity against human MCF7 cells by ATP-dependent cell viability assay; type: functional, cell-based
MCF7 [10] = assay: Antiproliferative activity against human MCF7 cells assessed as cell proliferation at 4 uM after 24 hrs by BrdU incorporation assay (reference value: 100%); type: functional; settings: MCF7, 24 h, read-out: Activity
PC-3 [11] = assay: Anticancer activity against human PC3 cells xenografted in NOD-SCID mouse assessed as decrease in tumor volume at 20 mg/kg, iv q4d on days 1, 5 and 9; type: functional, organism-based; set-up: dose 20 mg/kg
MCF7 [12] = assay: Growth inhibition of human MCF7 cells; type: functional
PC-3 [13] = assay: Anticancer activity against human PC3 cells xenografted in NOD-SCID mouse assessed as decrease in tumor weight at 20 mg/kg, iv q4d on days 1, 5 and 9; type: functional, organism-based; set-up: dose 20 mg/kg
SiHa = assay: Growth inhibition of human SiHa cells; type: functional
MCF7 [14] = assay: Cytotoxicity against human MCF7 cells assessed as decrease in cell viability at 2 to 16 uM after 6 to 48 hrs by MTT assay; type: functional, cell-based
MCF7 [15] = assay: Induction of apoptosis in human MCF7 cells assessed as procaspase-7 cleavage at 4 uM after 24 hrs by Western blot analysis; type: functional, cell-based
Mus musculus [16] = assay: Toxicity in NOD-SCID mouse xenografted with human PC3 cells assessed as weight loss at 20 mg/kg, iv q4d on days 1, 5 and 9; type: organism-based, PC-3; set-up: dose 20 mg/kg, route intravenous; settings: in vivo
MCF7 [17] = assay: Downregulation of cyclin D1 protein expression in human MCF7 cells at 2 to 4 uM after 24 hrs by Western blot analysis; type: functional, cell-based
MCF7 [18] = assay: Upregulation of Bax protein expression in human MCF7 cells at 4 uM after 24 hrs by Western blot analysis; type: functional, cell-based
MCF7 [19] = assay: Downregulation of CREB protein expression in human MCF7 cells at 4 uM after 24 hrs by Western blot analysis; type: functional, cell-based
ZR-75-1 = assay: Growth inhibition of human ZR-75-1 cells; type: functional
A2780 = assay: Growth inhibition of human A2780 cells; type: functional
COLO 205 = assay: Growth inhibition of human COLO205 cells; type: functional
MCF7 [20] = assay: Upregulation of JNK1/2 protein expression in human MCF7 cells at 4 uM after 24 hrs by Western blot analysis; type: functional, cell-based
MCF7 [21] = assay: Induction of apoptosis in human MCF7 cells assessed as Apoalert DNA fragmentation at 4 uM after 24 hrs by TUNEL assay; type: functional, cell-based
MCF7 [22] = assay: Upregulation of p53 protein expression in human MCF7 cells at 4 uM after 24 hrs by Western blot analysis; type: functional, cell-based
HOP-62 = assay: Growth inhibition of human HOP62 cells; type: functional
MCF7 [23] = assay: Cell cycle arrest in human MCF7 cells assessed as accumulation at G2/M phase at 4 uM after 24 hrs by propidium iodide staining based flow cytometry (reference value: 24.95%); type: functional
MCF7 [24] = assay: Induction of apoptosis in human MCF7 cells assessed as pRb protein expression at 4 uM after 24 hrs by Western blot analysis; type: functional, cell-based
MCF7 [25] = assay: Cell cycle arrest in human MCF7 cells assessed as accumulation at S phase at 4 uM after 24 hrs by propidium iodide staining based flow cytometry (reference value: 14.30%); type: functional
MCF7 [26] = assay: Downregulation of Jun B protein expression in human MCF7 cells at 4 uM after 24 hrs by Western blot analysis; type: functional, cell-based
MCF7 [27] = assay: Cell cycle arrest in human MCF7 cells assessed as accumulation at G1 phase at 4 uM after 24 hrs by propidium iodide staining based flow cytometry (reference value: 57.98%); type: functional
[28] = Growth inhibition of human Gurav cells; type: functional
MCF7 [29] = assay: Downregulation of c-Jun protein expression in human MCF7 cells at 4 uM after 24 hrs by Western blot analysis; type: functional, cell-based

## COc1ccc(-c2ccc3c(c2)c2cc(-c4ccc(OC)cc4)ccc2n3CCCCN2CCN(CCCCOc3cc4c(cc3OC)C(=O)N3CCC[C@H]3C=N4)CC2)cc1
MCF7 [1]
  Activity: Active
MCF7 [2]
  Activity: 25.31%
MCF7 [3]
  inhibition: Active
PC-3 [4]
  GI50: 10 nM
Calf thymus DNA
  ΔTm: 10.2 °C
Mus musculus [5]
  Activity: Non-toxic
MCF7 [6]
  inhibition: Active
A549
  GI50: 90 nM
KB
  GI50: 100 nM
[7]
  MTD: < 50 mg/kg
MCF7 [8]
  Activity: 88.34%
MCF7 [9]
  inhibition: Active
MCF7 [10]
  growth at 4 µM: 28%
PC-3 [11]
  inhibition: Active
MCF7 [12]
  GI50: 10 nM
PC-3 [13]
  inhibition: Active
SiHa
  GI50: 110 nM
MCF7 [14]
  inhibition: Active
MCF7 [15]
  Activity: Active
Mus musculus [16]
  Activity: Non-toxic
MCF7 [17]
  inhibition: Active
MCF7 [18]
  Activity: Active
MCF7 [19]
  inhibition: Active
ZR-75-1
  GI50: 120 nM
A2780
  GI50: 10 nM
COLO 205
  GI50: 70 nM
MCF7 [20]
  Activity: Active
MCF7 [21]
  Activity: Active
MCF7 [22]
  Activity: Active
HOP-62
  GI50: 10 nM
MCF7 [23]
  Activity: 6.2%
MCF7 [24]
  Activity: Active
MCF7 [25]
  Activity: 5.44%
MCF7 [26]
  inhibition: Active
MCF7 [27]
  Activity: 63.03%
[28]
  GI50: 110 nM
MCF7 [29]
  inhibition: Active
